These results are taken from ChEMBL document CHEMBL5360641, “4'-Ethynyl-2'-deoxy-2'-β-fluoro-2-fluoroadenosine: A Highly Potent and Orally Available Clinical Candidate for the Treatment of HIV-1 Infection” (J Med Chem, 2023).

Data set [1] in a line: Selectivity index, ratio of CC50 for cytotoxicity against HEK293T cells assessed as reduction in cell viability by MTT assay to EC50 for antiviral activity against HIV1 VSV-G pseudotyped virus infected in human HEK293T cells assessed as inhibition of viral growth. The class given is toxicity, cell-based. The settings on record: read-out: Ratio CC50/EC50.
Data set [2] concerns Human immunodeficiency virus 1. In words: Antiviral activity against HIV1 VSV-G pseudotyped virus infected in human HEK293T cells assessed as inhibition of viral growth preincubated for 3 hrs followed by washout and further incubated with compound for 72 hrs by luciferase assay. The note with it: Human immunodeficiency virus 1, HEK-293T. The class given is functional, organism-based.

The nature of data set [3]: Cytotoxicity against HEK293T cells assessed as reduction in cell viability by MTT assay. Format: toxicity, cell-based, HEK-293T. The settings on record: human.
The subject of data set [4] is Human immunodeficiency virus 1. In words: Antiviral activity against HIV1 KIZ001 infected in human PBMC assessed as inhibition of viral replication by measuring reduction in p24 antigen level incubated for 3 to 7 days by ELISA analysis. Format: functional, organism-based. The note with it: Human immunodeficiency virus 1, KIZ001, PBMC.
The test system of data set [5] is Human immunodeficiency virus 1. In words: Antiviral activity against HIV1 IIIB infected in human MT4 cells assessed as inhibition of viral replication incubated for 3 to 7 days by MTT analysis. The class given is functional, organism-based. The note with it: Human immunodeficiency virus 1, IIIB.
The test system of data set [6] is Human immunodeficiency virus 1. In words: Antiviral activity against HIV1 TC-1 infected in human PBMC assessed as inhibition of viral replication by measuring reduction in p24 antigen level incubated for 3 to 7 days by ELISA analysis. Format: functional, organism-based. The settings on record: Human immunodeficiency virus 1, TC-1, PBMC.
In data set [7] the test system is Human immunodeficiency virus 1. In words: Antiviral activity against HIV-1 harboring integrase G140S/Q148H double mutant infected in human TZM-bl cells assessed as inhibition of viral replication incubated for 3 to 7 days by luciferase assay. Format: functional, organism-based. The note with it: Human immunodeficiency virus 1, TZM-bl.
The subject of data set [8] is Human immunodeficiency virus 1. In words: Antiviral activity against HIV1 4755-5 infected in human C8166 cells assessed as inhibition of viral replication by measuring reduction in p24 antigen level incubated for 3 to 7 days by ELISA analysis. Format: functional, organism-based. The note with it: Human immunodeficiency virus 1, 4755-5, C8166.
Data set [9] relates to Human immunodeficiency virus 1. In words: Antiviral activity against HIV1 IIIB infected in human C8166 cells assessed as inhibition of syncytia formation incubated for 3 to 7 days by syncytia assays. Format: functional, organism-based. The note with it: Human immunodeficiency virus 1, IIIB.
For data set [10], the system named is Human immunodeficiency virus 1. In words: Antiviral activity against HIV1 IIIB infected in human C8166 cells assessed as inhibition of viral replication by measuring reduction in p24 antigen level incubated for 3 to 7 days by ELISA analysis. Format: functional, organism-based. The note with it: Human immunodeficiency virus 1, IIIB. On the technique in general: An ELISA detects its analyte on a solid surface through an enzyme-linked reagent.

Data set [11] relates to Human immunodeficiency virus 1. In words: Antiviral activity against HIV1 WAN infected in human PBMC assessed as inhibition of viral replication by measuring reduction in p24 antigen level incubated for 3 to 7 days by ELISA analysis. The note with it: Human immunodeficiency virus 1, WAN. The class given is functional, organism-based.

Usually EC50 stands for the concentration that produces a half-maximal response. One may read the CC50 as the concentration giving 50% cytotoxicity. For `[N-]=[N+]=N[C@]1(CO)O[C@@H](n2cnc3c(N)nc(F)nc32)[C@@H](F)[C@@H]1O`, in data set [1], the selectivity ratio was over 50300. Moreover, the concentration giving a half-maximal response (EC50) in data set [2] came out at 1.99 nM. In addition, the CC50 in [3] is over 100000 nM.
The corresponding values for `C#C[C@]1(CO)O[C@@H](n2cnc3c(N)ncnc32)[C@@H](F)[C@@H]1O` are 24600, 2.3 nM and 56500 nM.
The corresponding values for `COc1nc(N)c2ncn([C@@H]3O[C@@](CO)(N=[N+]=[N-])[C@@H](O)[C@@H]3F)c2n1` are over 22400, 4.46 nM and over 100000 nM.
As to `Nc1ccn([C@@H]2CS[C@H](CO)O2)c(=O)n1` [LAMIVUDINE], the 50% effective concentration (EC50) is 73 nM in [4]; 170 nM in data set [2]; 167 nM in [5]; 210 nM in data set [6]; 138 nM in data set [7]; over 200000 nM in data set [8]. Moreover, the values for the EC50 in data set [9], in data set [10] and in [11] were 199 nM, 853 nM and 538 nM, respectively. Moreover, in data set [1], the selectivity ratio is over 588. In addition, the 50% cytotoxic concentration (CC50) in data set [3] is over 100000 nM.
